Read-outs that look alike come from different tables or passages of the source. Bridge positions count the residues as written; N and C are the ends. Peptide text beside a SMILES is read from it. * marks the point of attachment. PEG12 = NCCOCCOCCOCCOCCOCCOCCOCCOCCOCCOCCOCCOCCC(=O)O; Biotin = O=C1N[C@H]2[C@H](CS[C@H]2CCCCC(=O)*)N1
Assays:
[1] = target: T1, NPR-B (Mus musculus, UniProt Q6VVW5); test: Stimulation of cGMP production in NIH3T3 cells; assay type: cell-based, Murine; conditions: for cGMP response relative to 1 uM CNP22 (%) at 0.01 µM: read-out: cGMP Response rel. to 1 uM CNP22, 10 nM; for cGMP response relative to 1 uM CNP22 (%) at 1 µM: read-out: cGMP Response rel. to 1 uM CNP22, 1 uM
T1 construct: Murine NIH3T3 cells express endogenously the CNP signaling receptor, NPR-B; endogenous in cells; host or cells: NIH3T3 (murine fibroblasts)
T1 sequence (Q6VVW5 17-1047): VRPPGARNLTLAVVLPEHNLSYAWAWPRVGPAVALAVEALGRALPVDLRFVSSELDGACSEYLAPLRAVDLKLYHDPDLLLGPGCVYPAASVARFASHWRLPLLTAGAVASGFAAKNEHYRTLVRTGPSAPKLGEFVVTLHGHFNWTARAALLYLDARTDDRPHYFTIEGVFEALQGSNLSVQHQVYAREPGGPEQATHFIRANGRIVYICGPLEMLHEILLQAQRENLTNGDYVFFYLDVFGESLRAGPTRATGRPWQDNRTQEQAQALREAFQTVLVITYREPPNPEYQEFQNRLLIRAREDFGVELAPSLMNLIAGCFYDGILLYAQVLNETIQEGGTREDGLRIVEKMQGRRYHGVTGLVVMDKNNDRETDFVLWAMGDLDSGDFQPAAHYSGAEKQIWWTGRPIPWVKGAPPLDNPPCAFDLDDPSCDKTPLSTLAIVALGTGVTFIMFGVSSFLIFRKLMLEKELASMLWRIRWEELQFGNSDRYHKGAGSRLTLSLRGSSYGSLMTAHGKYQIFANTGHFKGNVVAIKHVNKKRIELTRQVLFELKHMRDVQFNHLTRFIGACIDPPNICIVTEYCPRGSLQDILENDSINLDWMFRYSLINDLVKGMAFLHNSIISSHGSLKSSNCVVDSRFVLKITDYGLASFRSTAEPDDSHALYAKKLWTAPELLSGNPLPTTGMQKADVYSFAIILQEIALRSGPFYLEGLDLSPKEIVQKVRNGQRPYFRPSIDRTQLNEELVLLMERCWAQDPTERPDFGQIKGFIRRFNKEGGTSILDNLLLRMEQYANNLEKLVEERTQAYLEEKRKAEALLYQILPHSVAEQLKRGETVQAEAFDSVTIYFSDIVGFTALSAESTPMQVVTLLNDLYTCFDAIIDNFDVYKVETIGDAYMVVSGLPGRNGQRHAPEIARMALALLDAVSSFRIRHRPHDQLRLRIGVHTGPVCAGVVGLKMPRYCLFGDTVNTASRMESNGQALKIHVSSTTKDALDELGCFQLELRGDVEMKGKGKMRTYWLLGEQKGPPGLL

[2] = target: neutral endopeptidase (NEP) (Homo sapiens, UniProt P08473); test: In vitro neutral endopeptidase (NEP) cleavage assay; conditions: human, pH 7
Description: To determine the effects of amino acid substitutions, amino acid extensions, backbone modifications, side chain modifications and PEGylation on the susceptibility of CNP variants to neutral endopeptidase (NEP) cleavage, peptide cleavage assays were carried out using an in vitro assay that monitored disappearance of the non-cleaved CNP variant.
Recombinant human NEP (1 ug/mL final concentration) was added to 100 uM CNP variant diluted in 0.1 M Tris, pH 7. The reaction mixture was incubated at 37° C. for various periods of time, and the reaction was quenched with EDTA (10 mM final) followed by heat denaturation. The reaction mixture was reduced and then the reaction products were analyzed using HPLC and mass spectroscopy. The half-life of the CNP variant was calculated based on the disappearance of intact CNP variant over time.

[3] = NIH3T3 cells, 10 nM natriuretic peptide, normalized to cell number and cGMP production with 1 uM wtCNP22
[4] = NIH3T3 cells, 1 uM natriuretic peptide, normalized to cell number and cGMP production with 1 uM wtCNP22
[5] = recombinant human neutral endopeptidase (NEP)

Sequence of neutral endopeptidase (NEP) (P08473 whole entry): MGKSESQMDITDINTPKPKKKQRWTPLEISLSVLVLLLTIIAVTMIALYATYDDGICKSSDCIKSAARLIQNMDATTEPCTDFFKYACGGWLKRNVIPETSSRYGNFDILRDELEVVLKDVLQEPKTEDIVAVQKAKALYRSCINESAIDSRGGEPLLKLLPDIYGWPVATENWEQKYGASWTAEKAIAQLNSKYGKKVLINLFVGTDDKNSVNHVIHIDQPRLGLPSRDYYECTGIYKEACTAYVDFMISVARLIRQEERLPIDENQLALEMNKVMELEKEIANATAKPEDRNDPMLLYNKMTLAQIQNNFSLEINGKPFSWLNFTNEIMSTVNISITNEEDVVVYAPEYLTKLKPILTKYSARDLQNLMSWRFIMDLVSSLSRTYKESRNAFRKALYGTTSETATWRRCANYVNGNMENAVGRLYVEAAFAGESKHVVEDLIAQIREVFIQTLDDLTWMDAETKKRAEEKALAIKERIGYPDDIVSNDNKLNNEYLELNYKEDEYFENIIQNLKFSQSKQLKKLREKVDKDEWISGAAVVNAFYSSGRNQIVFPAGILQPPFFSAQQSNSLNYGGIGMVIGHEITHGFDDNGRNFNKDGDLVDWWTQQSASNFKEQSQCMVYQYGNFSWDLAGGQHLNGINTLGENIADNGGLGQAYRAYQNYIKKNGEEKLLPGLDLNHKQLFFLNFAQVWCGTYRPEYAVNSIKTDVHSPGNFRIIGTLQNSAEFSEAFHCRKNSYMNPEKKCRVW

| SMILES | cGMP response relative to 1 uM CNP22 (%) at 0.01 µM [1, 3] [%] | cGMP response relative to 1 uM CNP22 (%) at 1 µM [1, 4] [%] | half-life at 100 uM [2, 5] [min] | cGMP Response rel. to 1 uM CNP22, 10 nM [1, 3] | cGMP Response rel. to 1 uM CNP22, 1 uM [1, 4] | half-life at 100 uM [2] [min] | cGMP response relative to 1 uM CNP22 (%) at 0.01 µM ([1]; NIH3T3, […]) [%] | cGMP response relative to 1 uM CNP22 (%) at 1 µM ([1]; NIH3T3, […]) [%] |
| --- | --- | --- | --- | --- | --- | --- | --- | --- |
| CC[C@H](C)[C@@H]1NC(=O)[C@H](CCCNC(=N)N)NC(=O)[C@H](CC(=O)O)NC(=O)[C@H](CC(C)C)NC(=O)[C@H](CCCCN)NC(=O)[C@H](CC(C)C)NC(=O)CNC(=O)[C@H](Cc2ccccc2)NC(=O)[C@@H](NC(=O)CNC(=O)[C@H](CCCCN)NC(=O)[C@H](CO)NC(=O)[C@H](CC(C)C)NC(=O)CNC(=O)CCOCCOCCOCCOCCOCCOCCOCCOCCOCCOCCOCCOC)CSSC[C@@H](C(=O)O)NC(=O)CNC(=O)[C@H](CC(C)C)NC(=O)CNC(=O)[C@H](CO)NC(=O)[C@H](CCSC)NC(=O)[C@H](CO)NC(=O)CNC1=O [PEO12-CNP22] | 12 ± 7 | 57 ± 18 |  |  |  | ≥ 160 |  |  |
| CC[C@H](C)[C@@H]1NC(=O)[C@H](CCCNC(=N)N)NC(=O)[C@H](CC(=O)O)NC(=O)[C@H](CC(C)C)NC(=O)[C@H](CCCCN)NC(=O)[C@H](CC(C)C)NC(=O)CNC(=O)[C@H](Cc2ccccc2)NC(=O)[C@@H](NC(=O)CNC(=O)CNC(=O)[C@H](CO)NC(=O)[C@H](CC(C)C)NC(=O)CNC(=O)CCOCCOCCOCCOCCOCCOCCOCCOCCOCCOCCOCCOCCNC(=O)CCCC[C@@H]2SC[C@@H]3NC(=O)N[C@@H]32)CSSC[C@@H](C(=O)O)NC(=O)CNC(=O)[C@H](CC(C)C)NC(=O)CNC(=O)[C@H](CO)NC(=O)[C@H](CCSC)NC(=O)[C@H](CO)NC(=O)CNC1=O [(PEO12)-Biotin-CNP22, K4G] ({Biotin-PEG12}-GLSGGCFGLKLDRIGSMSGLGC-OH; disulfide 6-22; C-terminus assumed) |  |  |  |  |  | 100 | 10 | 27 |
| CC[C@H](C)[C@@H]1NC(=O)[C@H](CCCNC(=N)N)NC(=O)[C@H](CC(=O)O)NC(=O)[C@H](CC(C)C)NC(=O)[C@H](CCCCN)NC(=O)[C@H](CC(C)C)NC(=O)CNC(=O)[C@H](Cc2ccccc2)NC(=O)[C@@H](NC(=O)CNC(=O)[C@H](CCCCN)NC(=O)[C@H](CO)NC(=O)[C@H](CC(C)C)NC(=O)CNC(=O)CCOCCOCCOCCOCCOCCOCCOCCOCCOCCOCCOCCOCCNC(=O)CCCC[C@@H]2SC[C@@H]3NC(=O)N[C@@H]32)CSSC[C@@H](C(=O)O)NC(=O)CNC(=O)[C@H](CC(C)C)NC(=O)CNC(=O)[C@H](CO)NC(=O)[C@H](CCSC)NC(=O)[C@H](CO)NC(=O)CNC1=O [(PEO12)-Biotin-CNP22] |  |  |  |  |  | 140 | 19 | 81 |
| CC[C@H](C)[C@@H]1NC(=O)[C@H](CCCNC(=N)N)NC(=O)[C@H](CC(=O)O)NC(=O)[C@H](CC(C)C)NC(=O)[C@H](CCCCN)NC(=O)[C@H](CC(C)C)NC(=O)CNC(=O)[C@H](Cc2ccccc2)NC(=O)[C@@H](NC(=O)CNC(=O)[C@H](CCCCN)NC(=O)[C@H](CO)NC(=O)[C@H](CC(C)C)NC(=O)CNC(=O)[C@H](CCCCN)NC(=O)[C@H](CCCCN)NC(=O)[C@H](CC(N)=O)NC(=O)[C@H](C)NC(=O)CNC(=O)[C@H](CCCCN)NC(=O)[C@H](Cc2ccc(O)cc2)NC(=O)[C@H](CCCCN)NC(=O)[C@H](CCCNC(=N)N)NC(=O)[C@H](C)NC(=O)[C@H](CC(N)=O)NC(=O)[C@@H]2CCCN2C(=O)[C@H](Cc2c[nH]cn2)NC(=O)[C@H](CCC(=O)O)NC(=O)[C@@H](N)CCC(N)=O)CSSC[C@@H](C(=O)O)NC(=O)CNC(=O)[C@H](CC(C)C)NC(=O)CNC(=O)[C@H](CO)NC(=O)[C@H](CCSC)NC(=O)[C@H](CO)NC(=O)CNC1=O [BL] |  |  |  | 43 ± 15 | 97 ± 27 | > 160 |  |  |

The next lines start with results.

| cGMP response relative to 1 uM CNP22 (%) at 0.01 µM [1, 3] [%] | cGMP response relative to 1 uM CNP22 (%) at 1 µM [1, 4] [%] | half-life at 100 uM [2, 5] [min] | cGMP Response rel. to 1 uM CNP22, 10 nM [1, 3] | cGMP Response rel. to 1 uM CNP22, 1 uM [1, 4] | SMILES | half-life at 100 uM [2] [min] | cGMP response relative to 1 uM CNP22 (%) at 0.01 µM ([1]; NIH3T3, […]) [%] | cGMP response relative to 1 uM CNP22 (%) at 1 µM ([1]; NIH3T3, […]) [%] |
| --- | --- | --- | --- | --- | --- | --- | --- | --- |
| 11 ± 2 | 66 ± 16 | 80 |  |  | CC[C@H](C)[C@@H]1NC(=O)[C@H](CCCNC(=N)N)NC(=O)[C@H](CC(=O)O)NC(=O)[C@H](CC(C)C)NC(=O)[C@H](CCCCN)NC(=O)[C@H](CC(C)C)NC(=O)[C@H]([C@@H](C)O)NC(=O)[C@H](Cc2ccccc2)NC(=O)[C@@H](NC(=O)CNC(=O)[C@H](CCCNC(=N)N)NC(=O)[C@H](CO)NC(=O)[C@H](CC(C)C)NC(=O)CN)CSSC[C@@H](C(=O)O)NC(=O)CNC(=O)[C@H](CC(C)C)NC(=O)CNC(=O)[C@H](CO)NC(=O)[C@H](CCSC)NC(=O)[C@H](CO)NC(=O)CNC1=O [AC] (H-GLSRGCFTLKLDRIGSMSGLGC-OH; disulfide 6-22 (inferred); N-terminus and C-terminus assumed) |  |  |  |
| 11 | 54 | 60 |  |  | CC[C@H](C)[C@@H]1NC(=O)[C@H](CCCNC(=N)N)NC(=O)[C@H](CC(=O)O)NC(=O)[C@H](CC(C)C)NC(=O)[C@H](CCCCN)NC(=O)[C@H](CC(C)C)NC(=O)CNC(=O)[C@H](Cc2ccccc2)NC(=O)[C@@H](NC(=O)CNC(=O)[C@H](CCC(=O)O)NC(=O)[C@H](CO)NC(=O)[C@H](CC(C)C)NC(=O)[C@@H](N)CCC(=O)O)CSSC[C@@H](C(=O)O)NC(=O)CNC(=O)[C@H](CC(C)C)NC(=O)CNC(=O)[C@H](CO)NC(=O)[C@H](CCSC)NC(=O)[C@H](CO)NC(=O)CNC1=O [AT] (H-ELSEGCFGLKLDRIGSMSGLGC-OH; disulfide 6-22 (inferred); N-terminus and C-terminus assumed) |  |  |  |
| 59 ± 9 | 105 ± 20 |  |  |  | CC[C@H](C)[C@@H]1NC(=O)[C@H](CCCNC(=N)N)NC(=O)[C@H](CC(=O)O)NC(=O)[C@H](CC(C)C)NC(=O)[C@H](CCCCN)NC(=O)[C@H](CC(C)C)NC(=O)CNC(=O)[C@H](Cc2ccccc2)NC(=O)[C@@H](NC(=O)CNC(=O)[C@H](CCCNC(=N)N)NC(=O)[C@H](CO)NC(=O)[C@H](CC(C)C)NC(=O)CNC(=O)[C@H](CCCNC(=N)N)NC(=O)[C@H](CCCNC(=N)N)NC(=O)[C@H](CC(N)=O)NC(=O)[C@H](C)NC(=O)CN)CSSC[C@@H](C(=O)O)NC(=O)CNC(=O)[C@H](CC(C)C)NC(=O)CNC(=O)[C@H](CO)NC(=O)[C@H](CCSC)NC(=O)[C@H](CO)NC(=O)CNC1=O [AY] (H-GANRRGLSRGCFGLKLDRIGSMSGLGC-OH; disulfide 11-27 (inferred); N-terminus and C-terminus assumed) | 65 |  |  |
| 54 ± 11 | 106 ± 15 |  |  |  | CC[C@H](C)[C@@H]1NC(=O)[C@H](CCCNC(=N)N)NC(=O)[C@H](CC(=O)O)NC(=O)[C@H](CC(C)C)NC(=O)[C@H](CCCCN)NC(=O)[C@H](CC(C)C)NC(=O)CNC(=O)[C@H](Cc2ccccc2)NC(=O)[C@@H](NC(=O)CNC(=O)[C@H](CCCNC(=N)N)NC(=O)[C@H](CO)NC(=O)[C@H](CC(C)C)NC(=O)CNC(=O)[C@@H](N)CCCNC(=N)N)CSSC[C@@H](C(=O)O)NC(=O)CNC(=O)[C@H](CC(C)C)NC(=O)CNC(=O)[C@H](CO)NC(=O)[C@H](CCSC)NC(=O)[C@H](CO)NC(=O)CNC1=O [AZ] (H-RGLSRGCFGLKLDRIGSMSGLGC-OH; disulfide 7-23 (inferred); N-terminus and C-terminus assumed) | ≥ 160 |  |  |

Source: patent publication US8377884B2, “Variants of C-type natriuretic peptides” (Biomarin Pharmaceutical Inc., priority 2007, dated 2013)
